Measured values from patent US10363239B2, “Method for inhibiting growth of cancer cells” (Pain Therapeutics, Inc., priority 2013, dated 2019).
Where two headings read alike, the source gives them in different places.

Assays:
[1] = molecular target: FLNA pentapeptide of SEQ ID NO: 1 (Bn-VAKGL) (Homo sapiens, UniProt P21333); test: FITC-NLX-based FLNA screening assay (inhibition of FITC-naloxone binding to Bn-VAKGL on streptavidin plates); details: for inhibition at 0.01 µM / inhibition at 0.1 µM / inhibition at 1 µM: 10 nM FITC-NLX
[2] = system: mu opiate receptor (MOR); test: MOR agonist activity using [35S]GTPγS binding assay in striatal membranes; assay type: biochemical
Method: To assess the mu opiate receptor (MOR) agonist activity of positive compounds from the FLNA screening, compounds were tested in a [^35S]GTPγS binding assay using striatal membranes. […] This assay measures a functional consequence of receptor occupancy at one of the earliest receptor-mediated events. The assay permits traditional pharmacological parameters of potency, efficacy and antagonist affinity, with the advantage that agonist measures are not subjected to amplification or other modulation that may occur when analyzing parameters further downstream of the receptor.
Thus, striatal tissue was homogenized in 10 volumes of ice cold 25 mM HEPES buffer, pH 7.4, which contained 1 mM EGTA, 100 mM sucrose, 50 μg/ml leupeptin, 0.04 mM PMSF, 2 μg/ml soybean trypsin inhibitor and 0.2% 2-mercaptoethanol. The homogenates were centrifuged at 800×g for 5 minutes and the supernatants were centrifuged at 49,000×g for 20 minutes. The resulting pellets were suspended in 10 volume of reaction buffer, which contained 25 mM HEPES, pH 7.5, 100 mM NaCl, 50 μg/ml leupeptin, 2 μg/ml soybean trypsin inhibitor, 0.04 mM PMSF and 0.02% […].
The resultant striatal membrane preparation (200 μg) was admixed and maintained (incubated) at 30° C. for 5 minutes in reaction buffer as above that additionally contained 1 mM MgCl2 and 0.5 nM [^35S]GTPγS (0.1 μCi/assay, PerkinElmer Life and Analytical Sciences) in a total volume of 250 μl and continued for 5 minutes in the absence or presence of 0.1-10 μM of an assayed compound of interest. The reaction was terminated by dilution with 750 μl of ice-cold reaction buffer that contained 20 mM MgCl2 and 1 mM EGTA and immediate centrifugation at 16,000×g for 5 minutes.
The resulting pellet was solubilized by sonicating for 10 seconds in 0.5 ml of immunoprecipitation buffer containing 0.5% digitonin, 0.2% sodium cholate and 0.5% NP-40. Normal rabbit serum (1 μl) was added to 1 ml of lysate and incubated at 25° C. for 30 minutes. Nonspecific immune complexes were removed by incubation with 25 μl of protein A/G-conjugated agarose beads at 25° C. for 30 minutes followed by centrifugation at 5,000×g at 4° C. for 5 minutes. The supernatant was divided and separately incubated at 25° C. for 30 minutes with antibodies raised against Gαo proteins (1:1,000 dilutions).
The immunocomplexes so formed were collected by incubation at 25° C. for 30 minutes with 40 μl of agarose-conjugated protein A/G beads and centrifugation at 5,000×g at 4° C. for 5 minutes. The pellet was washed and suspended in buffer containing 50 mM Tris-HCl, pH 8.0, and 1% NP-40. The radioactivity in the suspension was determined by liquid scintillation spectrometry.

[3] = read-out: Percent Binding Inhibition, FLNA-binding compound 0.01 μM
[4] = read-out: Percent Binding Inhibition, FLNA-binding compound 0.1 μM
[5] = read-out: Percent Binding Inhibition, FLNA-binding compound 1 μM
[6] = FLNA-binding compound 0.01 μM, read-out: Percent Binding Inhibition
[7] = FLNA-binding compound 0.1 μM, read-out: Percent Binding Inhibition
[8] = FLNA-binding compound 1 μM, read-out: Percent Binding Inhibition
[9] = Series C-1, 0.1 μM compound, relative to DAMGO
[10] = Series C-1, 0.1 μM compound, [35S]GTPγS binding to Gαo, striatal membranes
[11] = Series C-1, 1 μM compound + 1 μM β-FNA
[12] = Series C-1, 1 μM compound + β-FNA, relative to DAMGO + BFNA
[13] = Series C-1, 1 μM compound, relative to DAMGO
[14] = Series C-1, 1 μM compound, [35S]GTPγS binding to Gαo, striatal membranes

SMILES: COc1ccc(S(=O)(=O)N2CCOC23CCN(CC2CC2)CC3)cc1 [Compound C0090M]
- inhibition at 0.01 µM [1, 3]: 42.5%
- inhibition at 0.1 µM [1, 4]: 52.5%
- inhibition at 1 µM [1, 5]: 55.8%
- % DAMGO (0.1 μM) ([2]; Series C-2, 0.1 μM compound, relative to DAMGO): 137.7%
- MOR agonist activity, percent [35S]GTPγS binding at the stated compound concentration ([2]; Series C-2, 0.1 μM compound, [35S]GTPγS binding to Gαo, striatal membranes): 237.0%
- MOR agonist activity, percent [35S]GTPγS binding at the stated compound concentration ([2]; Series C-2, 1 μM compound + 1 μM β-FNA): 41.0%
- % DAMGO + BFNA ([2]; Series C-2, 1 μM compound + β-FNA, relative to DAMGO + BFNA): 118.8%
- % DAMGO (1 μM) ([2]; Series C-2, 1 μM compound, relative to DAMGO): 155.2%
- MOR agonist activity, percent [35S]GTPγS binding at the stated compound concentration ([2]; Series C-2, 1 μM compound, [35S]GTPγS binding to Gαo, striatal membranes): 341.0%

SMILES: COc1ccccc1CC(O)CC1c2c(cc3c(c2OC)OCO3)CC[N+]1(C)C (stereo not shown) [Compound B0032]
- inhibition at 0.01 µM [1, 3]: 45.1%
- inhibition at 0.1 µM [1, 4]: 51.3%
- inhibition at 1 µM [1, 5]: 48.9%
- % DAMGO (0.1 μM) ([2]; Series B, 0.1 μM compound, relative to DAMGO): 115.0%
- MOR agonist activity, percent [35S]GTPγS binding at the stated compound concentration ([2]; Series B, 0.1 μM compound, [35S]GTPγS binding to Gαo, striatal membranes): 221.1%
- MOR agonist activity, percent [35S]GTPγS binding at the stated compound concentration ([2]; Series B, 1 μM compound + 1 μM β-FNA): 15.6%
- % DAMGO + BFNA ([2]; Series B, 1 μM compound + β-FNA, relative to DAMGO + BFNA): 35.5%
- % DAMGO (1 μM) ([2]; Series B, 1 μM compound, relative to DAMGO): 109.0%
- MOR agonist activity, percent [35S]GTPγS binding at the stated compound concentration ([2]; Series B, 1 μM compound, [35S]GTPγS binding to Gαo, striatal membranes): 297.7%

SMILES: COc1ccc(C(=O)N2CCC3(CC2)OCCN3C(=O)c2ccc(OC)cc2)cc1 [Compound C0017]
- inhibition at 0.01 µM [1, 6]: 28.9%
- inhibition at 0.1 µM [1, 7]: 35.4%
- inhibition at 1 µM [1, 8]: 40.7%
- % DAMGO (0.1 μM) [2, 9]: 87.1%
- Concentration of FLNA-Binding Compound as Agonist 0.1 μM [2, 10]: 153.8%
- Concentration of FLNA-Binding Compound as Agonist 1 μM + BFNA [2, 11]: 94.1%
- % DAMGO + BFNA [2, 12]: 143.2%
- % DAMGO (1 μM) [2, 13]: 109.7%
- Concentration of FLNA-Binding Compound as Agonist 1 μM [2, 14]: 284.5%

SMILES: CC1CCC(C(C)C)C(OCC(O)CN2CCCc3ccccc32)C1 (stereo not shown) [Compound A0068]
- inhibition at 0.01 µM [1, 3]: 51.9%
- inhibition at 0.1 µM [1, 4]: 54.2%
- inhibition at 1 µM [1, 5]: 58.3%
- MOR agonist activity ([35S]GTPγS binding), FLNA-Binding Compound as Agonist 0.1 μM ([2]; 0.1 μM compound): 73.9%
- % DAMGO (0.1 μM) ([2]; 0.1 μM compound relative to DAMGO): 36.8%
- MOR agonist activity ([35S]GTPγS binding), FLNA-Binding Compound as Agonist 1 μM ([2]; 1 μM compound): 110.4%
- MOR agonist activity ([35S]GTPγS binding), FLNA-Binding Compound as Agonist 1 μM + BFNA ([2]; 1 μM compound + 1 μM β-funaltrexamine): 98.1%
- % DAMGO + BFNA ([2]; 1 μM compound + BFNA relative to DAMGO + BFNA): 182.0%
- % DAMGO (1 μM) ([2]; 1 μM compound relative to DAMGO): 35.2%

SMILES: Cc1cccc(S(=O)(=O)N2CCC3(CC2)OCCN3S(=O)(=O)c2cccc(C)c2)c1 [Compound C0014]
- inhibition at 0.01 µM [1, 3]: 29.5%
- inhibition at 0.1 µM [1, 4]: 38.8%
- inhibition at 1 µM [1, 5]: 40%
- % DAMGO (0.1 μM) [2, 9]: 82.0%
- Concentration of FLNA-Binding Compound as Agonist 0.1 μM [2, 10]: 144.9%
- Concentration of FLNA-Binding Compound as Agonist 1 μM + BFNA [2, 11]: 76.3%
- % DAMGO + BFNA [2, 12]: 116.1%
- % DAMGO (1 μM) [2, 13]: 59.2%
- Concentration of FLNA-Binding Compound as Agonist 1 μM [2, 14]: 153.5%

SMILES: CN1CC[C@]23c4c5ccc(O)c4O[C@H]2[C@@H](O)C=C[C@H]3[C@H]1C5 [morphine, reference compound]
- Inhibition of 10 nM FITC-conjugated NLX binding to biotinylated FLNA pentapeptide (FIG. 28) ([1]; 10 μM): minimal binding inhibition

SMILES: COc1c2c(cc3c1C(CC(=O)CCc1ccccc1)[N+](C)(C)CC3)OCO2 (stereo not shown) [Compound B0015]
- inhibition at 0.01 µM [1, 3]: 30.4%
- inhibition at 0.1 µM [1, 4]: 35.3%
- inhibition at 1 µM [1, 5]: 42.3%

SMILES: O=C1CNC2(CCN(CC3CC3)CC2)N1 [Compound C0123M]
- inhibition at 0.01 µM [1, 6]: 51.9%
- inhibition at 0.1 µM [1, 7]: 60.5%
- inhibition at 1 µM [1, 8]: 62.9%

SMILES: CC(=O)c1ccc(S(=O)(=O)N2CCC3(CC2)NCCO3)cc1 [Compound C0055]
- inhibition at 0.01 µM [1, 6]: 29%
- inhibition at 0.1 µM [1, 7]: 34.9%
- inhibition at 1 µM [1, 8]: 39.5%
